The values below come from patent publication US20240270762A1, “PENICILLIN-BINDING PROTEIN INHIBITORS” (priority 2021, published 2024).

Assay in all cases: microbe, parasite or virus in culture
What all share (type): cell-based

For one assay, the system named is B. pseudomallei Bp82. The settings on record: Burkholderia pseudomallei, BP82, read-out: Minimum inhibitory concentration, B. pseudomallei Bp82.
The next assay relates to P. aeruginosa CDC-0110. The settings on record: Pseudomonas aeruginosa, CDC0110, read-out: Minimum inhibitory concentration, P. aeruginosa CDC-0110.
For another assay, the system named is P. aeruginosa ATCC 27853. The settings on record: Pseudomonas aeruginosa, ATCC27853, read-out: MIC P. aeruginosa ATCC 27853.
For the next assay, the system named is K. pneumoniae SI-117. The following applies: Klebsiella pneumoniae, SI117, read-out: MIC K. pneumoniae SI-117.
The subject of another assay is A. baumannii ATCC 19606. The following applies: Acinetobacter baumannii, ATCC19606, read-out: MIC, A. baumannii ATCC 19606.
The next assay relates to E. coli 901C. The settings on record: Escherichia coli, read-out: MIC E. coli 901C.
The next assay has as its system E. coli D22. The settings on record: Escherichia coli, D22, read-out: MIC E. coli D22.
The test system of a further assay is E. coli ATCC 25922. The settings on record: Escherichia coli, ATCC25922, read-out: MIC E. coli 25922.

Values after ≈ are worked out from the molar mass of the structure shown.

`O=C(O)c1c(F)ccc2c1OB(O)[C@@H](NC(=O)[C@H](NC(=O)N1CCN(C3CCN(C(=O)c4cc(F)c(O)c(O)c4Cl)CC3)C1=O)c1ccc(P(=O)(O)O)cc1)C2` (single isomer, unassigned) [Example 495]: the MIC in the assay with B. pseudomallei Bp82 and in the assay on P. aeruginosa CDC-0110 was less than 1 mg/L throughout.
As for `O=C(O)c1c(F)ccc2c1OB(O)[C@@H](NC(=O)[C@H](NC(=O)N1CCN(C3CCN(C(=O)Nc4ccc(O)c(O)c4Cl)CC3)C1=O)c1ccc(P(=O)(O)O)cc1)C2` (single isomer, unassigned) [Example 497], the MIC in the assay with B. pseudomallei Bp82 and in the assay with P. aeruginosa CDC-0110 was less than 1 mg/L in each case.
Consider `O=C(O)c1c(F)ccc2c1OB(O)[C@@H](NC(=O)[C@H](NC(=O)N1CCN(C3CCN(C(=O)Nc4cc(F)c(O)c(O)c4Cl)CC3)C1=O)c1ccc(P(=O)(O)O)cc1)C2` (single isomer, unassigned) [Example 500], for which the MIC with B. pseudomallei Bp82 and in the assay on P. aeruginosa CDC-0110 was less than 1 mg/L each time.
For the compound `O=C(O)c1c(F)ccc2c1OB(O)[C@@H](NC(=O)C(NC(=O)N1CCN(C3CCN(C(=O)Nc4ccc(Cl)c(O)c4F)CC3)C(=O)C1=O)c1cc(F)c(O)c(O)c1Cl)C2` (stereo partly drawn) [Example 489, (3R)-3-(2-(4-(1-((4-chloro-2-fluoro-3-hydroxyphenyl)carbamoyl)piperidin-4-yl)-2,3-dioxopiperazine-1-carboxamido)-2-(2-chloro-5-fluoro-3,4-dihydroxyphenyl)acetamido)-7-fluoro-2-hydroxy-3,4-dihydro-2H-benzo[e][1,2]oxaborinine-8-carboxylic acid], the MIC with P. aeruginosa CDC-0110 lay in the range of 2 to 4 mg/L (≈ 2.34 to 4.69 µM).
Same read-out and setting: under `O=C(O)c1c(F)ccc2c1OB(O)[C@@H](NC(=O)C(NC(=O)N1CCN(C3CCN(C(=O)Nc4cc(O)c(F)cc4Cl)CC3)C(=O)C1=O)c1cc(F)c(O)c(O)c1Cl)C2` (stereo partly drawn) [Example 490, (3R)-3-(2-(4-(1-((2-chloro-4-fluoro-5-hydroxyphenyl)carbamoyl)piperidin-4-yl)-2,3-dioxopiperazine-1-carboxamido)-2-(2-chloro-5-fluoro-3,4-dihydroxyphenyl)acetamido)-7-fluoro-2-hydroxy-3,4-dihydro-2H-benzo[e][1,2]oxaborinine-8-carboxylic acid] stands 2 to 4 mg/L (≈ 2.34 to 4.69 µM); under `O=C(O)c1c(F)ccc2c1OB(O)[C@@H](NC(=O)[C@H](NC(=O)N1CCN(C3CCN(C(=O)Nc4cc(F)c(F)c(O)c4F)CC3)C(=O)C1=O)c1cc(F)c(O)c(O)c1Cl)C2` [Example 491, (R)-3-((R)-2-(2-chloro-5-fluoro-3,4-dihydroxyphenyl)-2-(2,3-dioxo-4-(1-((2,4,5-trifluoro-3-hydroxyphenyl)carbamoyl)piperidin-4-yl)piperazine-1-carboxamido)acetamido)-7-fluoro-2-hydroxy-3,4-dihydro-2H-benzo[e][1,2]oxaborinine-8-carboxylic acid], less than 1 mg/L; under `O=C(O)c1c(F)ccc2c1OB(O)[C@@H](NC(=O)[C@H](NC(=O)N1CCN(C3CCN(Cc4cccnc4)CC3)C1=O)c1cc(F)c(O)c(O)c1Cl)C2` [Example 492, (R)-3-((R)-2-(2-chloro-5-fluoro-3,4-dihydroxyphenyl)-2-(2-oxo-3-(1-(pyridin-3-ylmethyl)piperidin-4-yl)imidazolidine-1-carboxamido)acetamido)-7-fluoro-2-hydroxy-3,4-dihydro-2H-benzo[e][1,2]oxaborinine-8-carboxylic acid], less than 1 mg/L.
For `O=C(O)c1c(F)ccc2c1OB(O)[C@@H](NC(=O)[C@H](NC(=O)N1CCN(C3CCN(Cc4ccncc4)CC3)C1=O)c1cc(F)c(O)c(O)c1Cl)C2` [Example 493, (R)-3-((R)-2-(2-chloro-5-fluoro-3,4-dihydroxyphenyl)-2-(2-oxo-3-(1-(pyridin-4-ylmethyl)piperidin-4-yl)imidazolidine-1-carboxamido)acetamido)-7-fluoro-2-hydroxy-3,4-dihydro-2H-benzo[e][1,2]oxaborinine-8-carboxylic acid], the MIC with P. aeruginosa CDC-0110 is less than 1 mg/L.
Take `O=C(O)c1c(F)ccc2c1OB(O)[C@@H](NC(=O)[C@H](NC(=O)N1CCN(C3CCN(C(=O)c4ccc(O)c(O)c4Cl)CC3)C1=O)c1ccc(P(=O)(O)O)cc1)C2` [Example 494, (R)-3-((R)-2-(3-(1-(2-chloro-3,4-dihydroxybenzoyl)piperidin-4-yl)-2-oxoimidazolidine-1-carboxamido)-2-(4-phosphonophenyl)acetamido)-7-fluoro-2-hydroxy-3,4-dihydro-2H-benzo[e][1,2]oxaborinine-8-carboxylic acid]: the MIC in the assay on B. pseudomallei Bp82 and with P. aeruginosa CDC-0110 was less than 1 mg/L in each case.
In the case of `O=C(O)c1c(F)ccc2c1OB(O)[C@@H](NC(=O)[C@H](NC(=O)N1CCN(C3CCN(C(=O)c4cc(O)c(O)c(Cl)c4)CC3)C1=O)c1ccc(P(=O)(O)O)cc1)C2` [Example 496, (R)-3-((R)-2-(3-(1-(3-chloro-4,5-dihydroxybenzoyl)piperidin-4-yl)-2-oxoimidazolidine-1-carboxamido)-2-(4-phosphonophenyl)acetamido)-7-fluoro-2-hydroxy-3,4-dihydro-2H-benzo[e][1,2]oxaborinine-8-carboxylic acid], the MIC in the assay on B. pseudomallei Bp82 and in the assay with P. aeruginosa CDC-0110 was less than 1 mg/L in each case.
As for `O=C(O)c1c(F)ccc2c1OB(O)[C@@H](NC(=O)[C@H](NC(=O)N1CCN(Cc3ccc(O)c(O)c3Cl)C(=O)C1=O)c1cc(F)c(P(=O)(O)O)c(F)c1)C2` [Example 502, (R)-3-((R)-2-(4-(2-chloro-3,4-dihydroxybenzyl)-2,3-dioxopiperazine-1-carboxamido)-2-(3,5-difluoro-4-phosphonophenyl)acetamido)-7-fluoro-2-hydroxy-3,4-dihydro-2H-benzo[e][1,2]oxaborinine-8-carboxylic acid], the MIC with B. pseudomallei Bp82 and in the assay with P. aeruginosa CDC-0110 was less than 1 mg/L in each case.
Consider `O=C(NCCN1CCN(C(=O)N[C@@H](C(=O)N[C@H]2Cc3ccc(F)c(C(=O)O)c3OB2O)c2ccc(P(=O)(O)O)cc2)C(=O)C1=O)c1ccc(O)c(O)c1Cl` [Example 503, (R)-3-((R)-2-(4-(2-(2-chloro-3,4-dihydroxybenzamido)ethyl)-2,3-dioxopiperazine-1-carboxamido)-2-(4-phosphonophenyl)acetamido)-7-fluoro-2-hydroxy-3,4-dihydro-2H-benzo[e][1,2]oxaborinine-8-carboxylic acid], for which the MIC in the assay with B. pseudomallei Bp82 and in the assay on P. aeruginosa CDC-0110 was less than 1 mg/L throughout.
Take `O=C(O)c1cccc2c1OB(O)[C@@H](NC(=O)[C@H](NC(=O)N1CCN(Cc3cc(F)c(O)c(O)c3Cl)C(=O)C1=O)c1ccc(P(=O)(O)O)cc1)C2` [Example 504, (R)-3-((R)-2-(4-(2-chloro-5-fluoro-3,4-dihydroxybenzyl)-2,3-dioxopiperazine-1-carboxamido)-2-(4-phosphonophenyl)acetamido)-2-hydroxy-3,4-dihydro-2H-benzo[e][1,2]oxaborinine-8-carboxylic acid]: the MIC is less than 1 mg/L in the assay on P. aeruginosa ATCC 27853; 2 to 4 mg/L (≈ 2.72 to 5.44 µM) in the assay with K. pneumoniae SI-117; less than 1 mg/L in the assay on A. baumannii ATCC 19606; less than 1 mg/L with E. coli 901C; 2 to 4 mg/L (≈ 2.72 to 5.44 µM) with E. coli D22; less than 1 mg/L in the assay on P. aeruginosa CDC-0110. In the assay with E. coli ATCC 25922, the MIC was less than 1 mg/L.
Regarding `O=C(O)c1c(F)ccc2c1OB(O)[C@@H](NC(=O)C(NC(=O)N1CCN(S(=O)(=O)c3ccc(O)c(O)c3Cl)C1=O)c1ccc(P(=O)(O)O)cc1)C2` (stereo partly drawn) [Example 505, (3R)-3-(2-(3-((2-chloro-3,4-dihydroxyphenyl)sulfonyl)-2-oxoimidazolidine-1-carboxamido)-2-(4-phosphonophenyl)acetamido)-7-fluoro-2-hydroxy-3,4-dihydro-2H-benzo[e][1,2]oxaborinine-8-carboxylic acid], the MIC in the assay on P. aeruginosa ATCC 27853, with B. pseudomallei Bp82, with K. pneumoniae SI-117, with A. baumannii ATCC 19606, in the assay with E. coli 901C and in the assay with E. coli D22 was less than 1 mg/L in each case. Further, the MIC with P. aeruginosa CDC-0110 and with E. coli ATCC 25922 was less than 1 mg/L in each case.
In the case of `O=C(O)c1c(F)ccc2c1OB(O)[C@@H](NC(=O)[C@H](NC(=O)N1CCN(S(=O)(=O)c3ccc(O)c(O)c3Cl)C1=O)c1ccc(P(=O)(O)O)cc1)C2` [Example 506, (R)-3-((R)-2-(3-((2-chloro-3,4-dihydroxyphenyl)sulfonyl)-2-oxoimidazolidine-1-carboxamido)-2-(4-phosphonophenyl)acetamido)-7-fluoro-2-hydroxy-3,4-dihydro-2H-benzo[e][1,2]oxaborinine-8-carboxylic acid], the MIC in the assay on P. aeruginosa ATCC 27853, in the assay on B. pseudomallei Bp82, with K. pneumoniae SI-117, in the assay with A. baumannii ATCC 19606, in the assay on E. coli 901C and with E. coli D22 was less than 1 mg/L in each case. Moreover, the MIC in the assay on P. aeruginosa CDC-0110 and in the assay on E. coli ATCC 25922 was less than 1 mg/L each time.
For `O=C(O)c1cccc2c1OB(O)[C@@H](NC(=O)[C@H](NC(=O)N1CCN(S(=O)(=O)c3ccc(O)c(O)c3Cl)C1=O)c1ccc(P(=O)(O)O)cc1)C2` [Example 509, (R)-3-((R)-2-(3-((2-chloro-3,4-dihydroxyphenyl)sulfonyl)-2-oxoimidazolidine-1-carboxamido)-2-(4-phosphonophenyl)acetamido)-2-hydroxy-3,4-dihydro-2H-benzo[e][1,2]oxaborinine-8-carboxylic acid], the MIC with P. aeruginosa ATCC 27853, in the assay with B. pseudomallei Bp82, with K. pneumoniae SI-117, in the assay with A. baumannii ATCC 19606, in the assay on E. coli 901C and with E. coli D22 was less than 1 mg/L throughout. Further, the MIC in the assay on P. aeruginosa CDC-0110 and in the assay on E. coli ATCC 25922 was less than 1 mg/L each time.
